Laboratory results taken from ChEMBL document CHEMBL5352424, “Boosting caffeic acid performance as antioxidant and monoamine oxidase B/catechol-O-methyltransferase inhibitor” (Eur J Med Chem, 2022).
Activity calls are given as the source filed them. No cut-off for these calls is given here.

Tests used:
[1] = target: T1, Catechol O-methyltransferase (Rattus norvegicus) (UniProt P22734); test: Inhibition of S-COMT in rat liver homogenates using adrenaline as substrate and SAM as cofactor at 30 uM preincubated for 20 mins followed by substrate addition and measured after 5 mins relative to control; type: tissue-based; conditions: time 25.0 min
T1 sequence (whole entry): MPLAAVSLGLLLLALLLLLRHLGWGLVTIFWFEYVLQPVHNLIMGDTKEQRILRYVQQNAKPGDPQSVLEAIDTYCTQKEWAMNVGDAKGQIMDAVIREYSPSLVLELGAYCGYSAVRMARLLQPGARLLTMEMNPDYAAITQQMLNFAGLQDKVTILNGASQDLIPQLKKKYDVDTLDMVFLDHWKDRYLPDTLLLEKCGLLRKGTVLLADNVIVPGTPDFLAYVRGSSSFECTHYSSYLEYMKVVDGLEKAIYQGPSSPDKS

SH-SY5Y [2] = test: Cytotoxicity against retinoic acid and TPA-differentiated human SH-SY5Y cells assessed as reduction in metabolic activity by measuring reduction in resorufin fluorescence at 10 to 50 uM incubated for 24 hrs by resazurin dye based assay; type: toxicity, cell-based; conditions: dose 10-50 µM
[3] = target: T2, Amine oxidase [flavin-containing] B (Homo sapiens, UniProt P27338); test: Inhibition of human MAO-B using kynuramine as substrate at 10 uM incubated for 30 mins by spectrophotometry analysis relative to control; conditions: 0.5 h
T2 sequence (P27338 whole entry): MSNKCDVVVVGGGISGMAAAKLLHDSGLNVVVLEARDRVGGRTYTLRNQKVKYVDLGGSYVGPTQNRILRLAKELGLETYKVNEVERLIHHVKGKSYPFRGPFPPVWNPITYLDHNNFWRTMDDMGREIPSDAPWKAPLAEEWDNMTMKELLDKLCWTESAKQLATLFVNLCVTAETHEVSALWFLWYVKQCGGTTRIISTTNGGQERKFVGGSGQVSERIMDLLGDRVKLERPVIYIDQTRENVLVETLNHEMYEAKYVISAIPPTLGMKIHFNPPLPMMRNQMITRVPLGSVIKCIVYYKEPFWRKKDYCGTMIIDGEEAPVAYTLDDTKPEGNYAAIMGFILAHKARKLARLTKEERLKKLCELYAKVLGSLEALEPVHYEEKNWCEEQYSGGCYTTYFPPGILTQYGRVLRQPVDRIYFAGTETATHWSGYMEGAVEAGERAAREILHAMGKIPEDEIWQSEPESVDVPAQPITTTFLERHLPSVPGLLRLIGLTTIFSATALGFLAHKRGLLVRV

SH-SY5Y [4] = test: Cytoprotective activity against t-BHP induced oxidative stress in retinoic acid and TPA-differentiated human SH-SY5Y cells assessed as increase in resorufin fluorescence at 10 uM pretreated for 30 mins followed by t-BHP stimulation and measured after 24 hrs by resazurin dye based analysis; type: functional, cell-based; conditions: time 24.5 hrs
[5] = target: T3, Amine oxidase [flavin-containing] A (Homo sapiens, UniProt P21397); test: Inhibition of human MAO-A using kynuramine as substrate at 10 uM incubated for 30 mins by spectrophotometry analysis relative to control; conditions: 0.5 h
T3 sequence (P21397 whole entry): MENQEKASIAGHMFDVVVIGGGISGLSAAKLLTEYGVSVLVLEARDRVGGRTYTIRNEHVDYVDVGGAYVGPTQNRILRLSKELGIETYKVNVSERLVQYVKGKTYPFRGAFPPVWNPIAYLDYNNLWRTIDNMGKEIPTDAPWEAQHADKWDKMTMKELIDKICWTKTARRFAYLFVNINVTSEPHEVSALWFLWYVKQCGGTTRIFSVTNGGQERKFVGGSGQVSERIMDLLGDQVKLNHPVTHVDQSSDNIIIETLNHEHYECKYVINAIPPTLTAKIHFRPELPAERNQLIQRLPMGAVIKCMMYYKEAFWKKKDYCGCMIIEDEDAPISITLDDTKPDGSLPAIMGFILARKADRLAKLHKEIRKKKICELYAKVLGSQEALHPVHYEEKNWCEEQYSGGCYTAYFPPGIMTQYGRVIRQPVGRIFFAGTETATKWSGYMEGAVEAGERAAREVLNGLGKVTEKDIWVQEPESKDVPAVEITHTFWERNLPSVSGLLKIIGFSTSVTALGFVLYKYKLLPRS

[6] = Oxidation potential of compound at pH 7.3 by differential pulse voltammetry analysis; type: physicochemical
SH-SY5Y [7] = test: Cytotoxicity against retinoic acid and TPA-differentiated human SH-SY5Y cells assessed as reduction in lysosomal activity by measuring neutral red dye internalization at 10 to 50 uM incubated for 24 hrs by neutral red dye based assay; type: toxicity, cell-based; conditions: dose 10-50 µM
[8] = target: T1, Catechol O-methyltransferase (Rattus norvegicus); test: Inhibition of MB-COMT in rat brain homogenates using adrenaline as substrate and SAM as cofactor at 30 uM preincubated for 20 mins followed by substrate addition and measured after 5 mins relative to control; type: tissue-based; conditions: time 25.0 min
[9] = Antioxidant activity assessed as ORAC-FL index; type: functional
[10] = target: T1, Catechol O-methyltransferase (Rattus norvegicus); test: Inhibition of MB-COMT in rat liver homogenates using adrenaline as substrate and SAM as cofactor at 30 uM preincubated for 20 mins followed by substrate addition and measured after 5 mins relative to control; type: tissue-based; conditions: time 25.0 min
SK-N-SH = test: Cytotoxicity against human SK-N-SH cells assessed as reduction in calcein fluorescence at 30 to 50 uM by calcein-AM assay; type: toxicity, cell-based; conditions: dose 30-50 µM
SH-SY5Y [11] = test: Cytotoxicity against retinoic acid and TPA-differentiated human SH-SY5Y cells upto 50 uM incubated for 24 hrs by resazurin dye based assay; type: toxicity, cell-based
SH-SY5Y [12] = test: Cytotoxicity against retinoic acid and TPA-differentiated human SH-SY5Y cells upto 50 uM incubated for 24 hrs by neutral red dye based assay; type: toxicity, cell-based
Rattus norvegicus = species on record: Rattus norvegicus; test: Selectivity index, ratio of IC50 for S-COMT in rat liver homogenates to IC50 for MB-COMT in rat brain homogenates; type: tissue-based
SH-SY5Y [13] = test: Cytotoxicity against retinoic acid and TPA-differentiated human SH-SY5Y cells assessed as reduction in lysosomal activity at 50 uM incubated for 24 hrs by neutral red dye based assay; type: toxicity, cell-based
[14] = target: T4, Catechol O-methyltransferase (Rattus norvegicus, UniProt P22734); test: Inhibition of MB-COMT in rat brain homogenates using adrenaline as substrate and SAM as cofactor preincubated for 20 mins followed by substrate addition and measured after 5 mins; type: tissue-based
T4 sequence (P22734 whole entry): T1 sequence (whole entry)

SH-SY5Y [15] = test: Cytotoxicity against retinoic acid and TPA-differentiated human SH-SY5Y cells assessed as reduction in lysosomal activity by measuring neutral red dye uptake at 10 uM incubated for 24 hrs by neutral red dye based assay relative to control; type: toxicity, cell-based; parameters: scale not given: the % may be the effect or the level left
[16] = target: T4, Catechol O-methyltransferase; test: Inhibition of MB-COMT in rat liver homogenates using adrenaline as substrate and SAM as cofactor preincubated for 20 mins followed by substrate addition and measured after 5 mins; type: tissue-based
SH-SY5Y [17] = test: Cytotoxicity against retinoic acid and TPA-differentiated human SH-SY5Y cells assessed as reduction in metabolic activity by measuring resazurin reduction at 10 uM incubated for 24 hrs by resazurin dye based assay relative to control; type: toxicity, cell-based; parameters: scale not given: the % may be the effect or the level left
Homo sapiens = species on record: Homo sapiens; test: Selectivity index, ratio of IC50 for human MAO-A to IC50 for human MAO-B
[18] = target: T2, Amine oxidase [flavin-containing] B; test: Inhibition of human MAO-B using kynuramine as substrate incubated for 30 mins by spectrophotometry analysis
SH-SY5Y [19] = test: Cytotoxicity against retinoic acid and TPA-differentiated human SH-SY5Y cells assessed as increase in intracellular ROS formation by measuring increase in DCF fluorescence at 10 to 50 uM incubated for 24 hrs by DCF fluorescence analysis; type: toxicity, cell-based; conditions: dose 10-50 µM
[20] = Retention time of compound at pH 2.6 by LC/UV analysis; type: physicochemical; conditions: buffer
[21] = Chromatographic hydrophobicity index of compound at pH 2.6 by HPLC analysis; type: physicochemical

Row | inhibition [1] [%] | inhibition at 10 µM [3] [%] | inhibition at 10 µM [5] [%] | Ep [6] [mV] | IC50 [14] [µM] | IC50 [16] [µM] | Ratio IC50 (Homo sapiens) | IC50 [18] [µM] | SMILES | Activity (SH-SY5Y [2]) | Activity (SH-SY5Y [4]) | Activity (SH-SY5Y [7]) | Activity index [9] | Ratio IC50 (Rattus norvegicus) | Activity (SH-SY5Y [13]) | Activity (SH-SY5Y [15]) [%] | Activity (SH-SY5Y [17]) [%] | also measured
1 | < 50 | < 50 | < 50 | 144 |  |  |  |  | N#C/C(=C\C=C\c1ccc(O)c(O)c1)C(=O)O | Non-Toxic | inactive | Non-Toxic | 4.9 |  |  |  |  | inhibition [8]: < 50%; inhibition [10]: < 50%
2 | < 50 |  | < 50 | 174 |  |  | > 8.7 | 1.15 | N#C/C(=C\C=C\c1ccc(O)c(O)c1)C(=O)NCc1ccccc1 [LS-104] |  | Active |  | 2.8 |  | Toxic | > 85 | > 85 | inhibition [8]: < 50%; inhibition [10]: < 50%
3 | < 50 | < 50 | < 50 | 129 |  |  |  |  | O=C(O)/C=C/C=C/c1ccc(O)c(O)c1 [DEMETHYLENATED PIPERIC ACID] | Non-Toxic | inactive | Non-Toxic | 5.5 |  |  |  |  | Activity (SH-SY5Y [19]): Non-Toxic; inhibition [8]: < 50%; inhibition [10]: < 50%
4 | < 50 |  | < 50 | 113 | 1.65 | 3.84 | > 4 | 2.5 | O=C(/C=C/C=C/c1ccc(O)c(O)c1)N1CCCCC1 |  | Active |  | 4.3 | > 18 | Toxic | > 85 | > 85 | Retention_time [20]: 10.08 min; Activity (SH-SY5Y [19]): Non-Toxic; CHI [21]: 49.61
5 | < 50 |  | < 50 | 161 | 2.41 | 3.74 | > 2.2 | 4.55 | N#C/C(=C\C=C\c1ccc(O)c(O)c1)C(=O)Nc1ccccc1 |  | Active |  | 3.5 | > 12 | Toxic | > 85 | > 85 | 
6 | < 50 | < 50 | < 50 | 114 | 1.62 | 6.13 |  |  | O=C(/C=C/C=C/c1ccc(O)c(O)c1)Nc1ccccc1 |  | Active |  | 4.1 | > 19 | Toxic | > 85 | > 85 | 

Second part, the compound before the results:

Row | SMILES | inhibition [1] [%] | inhibition at 10 µM [3] [%] | inhibition at 10 µM [5] [%] | Ep [6] [mV] | IC50 [14] [µM] | IC50 [16] [µM] | Ratio IC50 (Homo sapiens) | IC50 [18] [µM] | Activity (SH-SY5Y [2]) | Activity (SH-SY5Y [4]) | Activity (SH-SY5Y [7]) | Activity index [9] | Ratio IC50 (Rattus norvegicus) | Activity (SH-SY5Y [13]) | Activity (SH-SY5Y [15]) [%] | Activity (SH-SY5Y [17]) [%] | also measured
7 | Cc1ccc(C(=O)c2cc(O)c(O)c([N+](=O)[O-])c2)cc1 [TOLCAPONE] |  |  |  |  |  |  |  |  |  |  |  |  |  |  |  |  | Activity (SK-N-SH): Non-Toxic; Activity (SH-SY5Y [11]): Non-Toxic; Activity (SH-SY5Y [12]): Non-Toxic
8 | O=C(/C=C/C=C/c1ccc(O)c(O)c1)NCc1ccccc1 | < 50 | < 50 | < 50 | 129 | 1.48 | 4.27 |  |  |  | Active |  | 4 | > 20 | Toxic | > 85 | > 85 | 
9 | O=C(/C=C/C=C/c1ccc(O)c(O)c1)NCCc1ccccc1 | < 50 | < 50 | < 50 | 124 | 1.32 | 3.64 |  |  | Non-Toxic | Active |  | 3.3 | > 22 | Toxic | > 85 |  | 
10 | N#C/C(=C\C=C\c1ccc(O)c(O)c1)C(=O)N1CCCCC1 | < 50 |  | < 50 | 154 | 1.33 | 2.69 | > 2.3 | 4.27 |  | Active | Non-Toxic | 3.5 | > 23 |  |  | > 85 | Activity (SK-N-SH): Non-Toxic; Retention_time [20]: 10.5 min; CHI [21]: 56.03
11 | O=C(O)/C=C/c1ccc(O)c(O)c1 [CAFFEIC ACID] |  | < 50 | < 50 | 168 |  |  |  |  | Non-Toxic |  | Non-Toxic | 4.8 |  |  |  |  | 
12 | N#C/C(=C\C=C\c1ccc(O)c(O)c1)C(=O)NCCc1ccccc1 | < 50 |  | < 50 | 163 | 1.27 | 4 | > 2.3 | 4.38 | Non-Toxic | Active |  | 3 | > 24 | Toxic | > 85 |  | 
13 | C[C@H](NCc1ccc(OCc2cccc(F)c2)cc1)C(N)=O [SAFINAMIDE] |  |  | < 50 |  |  |  |  |  |  |  |  |  |  |  |  |  | 
